According to patent US20070004036A1, “Methods and compositions for keratinocyte culture” (priority 2005, published 2007):

Tested on: Human dermal adult and newborn skin fibroblasts
Test: Fibroblast proliferation in SFM and serum-containing media
Assay type: cell-based
Settings: primary and secondary culture, FIG. 5
Experimental: Human dermal adult and newborn skin fibroblasts were cultured in a SFM and serum-containing media (DMEM 5% FBS). Collagenase (1 μg/ml) was added to the DMEM serum free media (SFM) and tested on primary and secondary culture of human adult and newborn fibroblasts. In both cases (SFM and DMEM 5%) Collagenase increase cell proliferation up to 2-2.5 fold over the controls.

Collagenase
increase in cell proliferation over the controls (DMEM 5% FBS): 2-2.5 fold | increase in cell proliferation over the controls (SFM, collagenase 1 μg/ml): 2-2.5 fold
